# Results reported in US7186819B2, “Glutamate receptor and utilization thereof” (Ajinomoto Co., Inc., priority 2002, dated 2007).
# Assays:
# [1] = test system: vagal gastric branch; test: Vagal gastric branch afferent nerve activity recording after administration to stomach; assay type: in vivo, rat; conditions: 150 mM administered to stomach; urethane-anesthetized fasted Wistar rats; FIG. 4
# Protocol: Rats (Wistar strain, males, 8 to 10 weeks age; Nippon Charles Liver) were fasted for 18 hours, laparotomy was conducted under anesthetization with urethane (1 g/kg; i.p.) and vagal gastric branch was exfoliated to an extent of about 5 mm. After vagal bundle was cut, it was placed on a small operation stand (8×6 mm), fat and bonded tissues around that were carefully detached and the terminal fiber at the side of organ was placed on a dipole electrode made of platinum for recording and insulated from the surrounding tissues by a mixture of liquid paraffin-vaseline (1:1). […]
# Nerve action potential was amplified to an extent of 10,000-fold by a micropotential amplifier (DAM-80 manufactured by WPI); and after noise was reduced by a Vessel filter (4-pole, High Cut 10 Hz, Low Cut 1 KHz), it was subjected to an A/D conversion (Powerlab 4sp, manufactured by ADI Instruments, Inc.) and incorporated into a computer (sampling rate 3 KHz, iBook). At the same time, an amplified signal was separated by a window discriminator (DSE-435 manufactured by Daiya Medical Co., Ltd.) into a noise component and a nerve signal component together with monitoring by an oscilloscope, integrated for 5 seconds by a spike counter (DSE-335P manufactured by Daiya Medical Co., Ltd.) and recorded in a chart recorder (WT-465G manufactured by Nippon Koden Corporation). […]
# [2] = biological target: T1, mGluRTβa (Rattus norvegicus, UniProt P23385); test: Two-electrode membrane potential fixation measurement of calcium-dependent chloride current in Xenopus oocytes expressing mGluRTβa; assay type: cell-based; conditions: medium containing 50 mM, potential fixed at -70 mV, current disappeared on substituting the medium again, FIG. 6
# T1 construct: expressed in transfected cells; host or cells: Xenopus oocytes injected with cRNA transcribed from pCRII-TOPO/mGluRTβ
# Protocol: (§1) Oocyte-expressing strain of Xenopus was used for analysis of function of mGluR1 mRNA derived from circumvallate papilla of rats.
# (§2) Female Xenopus (purchased from Watanabe Zoshoku) was bred in a fish tank until oocytes were isolated. The Xenopus was anesthetized with tricain methanesulfonate (MS 222, Sigma) dissolved in deionized water in a concentration of 1 g/L followed by buffering with NaHCO3 (500 mg/L). Anatomy was conducted by hand and oocytes in stages V and VI were recovered from ovary and incubated (for 30 minutes to 1 hour) in a 0.2% collagenase S-1 (Nitta Gelatin) until dissociation took place. After treating with collagenase, the oocytes were washed; follicles were removed; selection was conducted under a microscope; and incubation was carried out at 18° C. for one night.
# (§3) Since the polymerase remains […] in PCR fragments, PCR-amplified mGluRTβa and mGluRTγa template DNA were inserted into pCRII-TOPO vector (Invitrogen) by a TOPO-TA cloning reaction. pCRII-TOPO/mGluRTγ vector and pCRII-TOPO/mGluRTβ vector were made into straight lines using EcoRV and XbaI, respectively, extracted with a mixture of phenol and chloroform and precipitated with ethanol together with sodium acetate. After a sequence analysis, cRNA was prepared using a transcription kit for Sp6 promoter made by Ambion (mMESSAGE mMACHINE kit) binding to pCRII-TOPO promoter.
# [3] = biological target: T2, mGluRTγa (Rattus norvegicus, UniProt P23385); test: Two-electrode membrane potential fixation measurement of calcium-dependent chloride current in Xenopus oocytes expressing mGluRTγa; assay type: cell-based; conditions: potential fixed at -70 mV
# T2 construct: expressed in transfected cells; host or cells: Xenopus oocytes injected with cRNA transcribed from pCRII-TOPO/mGluRTγ
# Protocol: as §1, §2, §3
# [4] = test system: oocytes into which cRNA was not injected; test: Two-electrode membrane potential fixation measurement of membrane current in oocytes not injected with cRNA; assay type: cell-based, Xenopus; conditions: data not shown
# Protocol: as §2
# T2 sequence (P23385 410-1199): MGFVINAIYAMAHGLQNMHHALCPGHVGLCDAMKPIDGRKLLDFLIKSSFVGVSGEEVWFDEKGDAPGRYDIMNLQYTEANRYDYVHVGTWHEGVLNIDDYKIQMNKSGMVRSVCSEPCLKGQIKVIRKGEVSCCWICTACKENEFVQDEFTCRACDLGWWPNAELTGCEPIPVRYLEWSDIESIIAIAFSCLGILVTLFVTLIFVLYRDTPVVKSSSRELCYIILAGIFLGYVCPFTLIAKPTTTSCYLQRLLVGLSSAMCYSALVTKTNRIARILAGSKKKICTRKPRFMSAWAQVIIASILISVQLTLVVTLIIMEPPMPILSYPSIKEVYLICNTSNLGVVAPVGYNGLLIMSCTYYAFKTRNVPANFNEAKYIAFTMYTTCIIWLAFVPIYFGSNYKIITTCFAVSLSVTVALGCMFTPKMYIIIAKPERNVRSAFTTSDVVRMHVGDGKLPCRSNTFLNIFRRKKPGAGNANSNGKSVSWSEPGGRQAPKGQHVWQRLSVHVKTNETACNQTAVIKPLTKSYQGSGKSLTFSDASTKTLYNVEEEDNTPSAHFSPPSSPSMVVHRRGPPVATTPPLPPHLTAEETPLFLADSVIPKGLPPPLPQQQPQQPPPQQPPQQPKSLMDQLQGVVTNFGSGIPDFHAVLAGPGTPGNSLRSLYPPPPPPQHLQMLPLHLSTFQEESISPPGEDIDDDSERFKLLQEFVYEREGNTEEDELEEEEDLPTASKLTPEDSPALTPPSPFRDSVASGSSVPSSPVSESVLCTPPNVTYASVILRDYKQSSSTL
# T1 sequence (P23385 410-1199): as above
smiles,measurement,setting,value
"N[C@@H](CCC(=O)[O-])C(=O)[O-].[Na+].[Na+] [MSG, sodium L-glutamate]",Centripetal activity of vagal gastric branch,[1],accelerated
same,Membrane current (calcium-dependent chloride current),[2],continuous introvert current was induced
same,Membrane current (calcium-dependent chloride current),[3],same introvert current was also observed
same,Membrane current (calcium-dependent chloride current),[4],not observed
